Results on one compound are retold here after ChEMBL document CHEMBL3045439, “Isoforms of the heteropteran Nezara viridula ecdysone receptor: protein characterisation, RH5992 insecticide binding and homology modelling” (Pest Manag Sci, 2011).

Holding throughout (format): protein-complex assay
For test [1], the target named is T1, Ecdysone receptor (Aedes aegypti, UniProt P49880+Q9GSG8).
T1 sequence (P49880 whole entry): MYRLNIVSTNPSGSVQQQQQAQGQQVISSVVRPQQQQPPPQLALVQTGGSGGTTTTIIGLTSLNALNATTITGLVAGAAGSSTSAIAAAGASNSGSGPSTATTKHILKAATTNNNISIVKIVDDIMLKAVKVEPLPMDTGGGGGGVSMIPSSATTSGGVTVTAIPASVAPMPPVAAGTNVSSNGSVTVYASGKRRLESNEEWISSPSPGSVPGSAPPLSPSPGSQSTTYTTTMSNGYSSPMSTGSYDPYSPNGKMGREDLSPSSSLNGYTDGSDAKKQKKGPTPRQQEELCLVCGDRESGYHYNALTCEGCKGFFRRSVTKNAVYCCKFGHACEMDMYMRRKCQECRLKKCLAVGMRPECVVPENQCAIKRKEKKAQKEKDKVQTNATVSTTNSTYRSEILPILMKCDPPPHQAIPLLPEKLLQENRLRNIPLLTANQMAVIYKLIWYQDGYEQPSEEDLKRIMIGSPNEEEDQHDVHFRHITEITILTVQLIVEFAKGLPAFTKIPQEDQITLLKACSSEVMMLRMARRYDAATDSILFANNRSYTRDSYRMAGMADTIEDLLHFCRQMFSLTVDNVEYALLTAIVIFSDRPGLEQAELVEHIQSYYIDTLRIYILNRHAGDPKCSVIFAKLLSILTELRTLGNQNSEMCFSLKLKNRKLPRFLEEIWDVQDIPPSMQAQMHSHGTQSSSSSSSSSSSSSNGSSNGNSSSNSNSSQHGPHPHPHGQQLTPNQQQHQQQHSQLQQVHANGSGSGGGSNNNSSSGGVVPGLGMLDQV
T1 sequence (Q9GSG8 whole entry): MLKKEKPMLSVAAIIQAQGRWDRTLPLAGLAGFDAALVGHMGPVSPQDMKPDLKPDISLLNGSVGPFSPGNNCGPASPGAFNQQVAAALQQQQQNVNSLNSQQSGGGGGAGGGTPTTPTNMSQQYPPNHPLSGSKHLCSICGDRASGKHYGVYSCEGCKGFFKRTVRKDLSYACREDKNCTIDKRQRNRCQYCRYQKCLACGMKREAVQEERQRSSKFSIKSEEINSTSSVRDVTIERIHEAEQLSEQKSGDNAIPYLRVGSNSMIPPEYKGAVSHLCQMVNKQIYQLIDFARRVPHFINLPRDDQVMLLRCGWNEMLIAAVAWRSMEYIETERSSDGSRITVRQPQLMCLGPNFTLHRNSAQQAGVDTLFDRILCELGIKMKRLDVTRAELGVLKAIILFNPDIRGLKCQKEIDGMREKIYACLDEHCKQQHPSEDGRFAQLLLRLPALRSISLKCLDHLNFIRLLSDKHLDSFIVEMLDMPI
Briefly: Binding affinity to Aedes aegypti EcR.

Test [2] has as its target T2, Ecdysone receptor (Chilo suppressalis, UniProt Q8I1M8+Q8MYA6).
T2 sequence (Q8MYA6 whole entry): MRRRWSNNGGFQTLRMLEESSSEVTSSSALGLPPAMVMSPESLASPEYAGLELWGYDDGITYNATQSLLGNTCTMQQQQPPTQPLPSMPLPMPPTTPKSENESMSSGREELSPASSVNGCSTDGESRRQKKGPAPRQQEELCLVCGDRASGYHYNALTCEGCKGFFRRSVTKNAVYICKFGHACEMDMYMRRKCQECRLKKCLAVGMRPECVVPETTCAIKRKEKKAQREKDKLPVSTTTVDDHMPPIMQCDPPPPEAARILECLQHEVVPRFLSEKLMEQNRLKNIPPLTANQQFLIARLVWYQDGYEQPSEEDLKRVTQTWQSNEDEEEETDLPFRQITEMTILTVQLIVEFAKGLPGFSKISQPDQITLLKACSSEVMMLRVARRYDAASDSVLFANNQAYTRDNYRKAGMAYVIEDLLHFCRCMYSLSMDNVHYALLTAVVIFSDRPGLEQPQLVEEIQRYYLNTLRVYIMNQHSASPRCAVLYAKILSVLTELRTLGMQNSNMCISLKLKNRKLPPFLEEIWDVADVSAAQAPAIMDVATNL
T2 sequence (Q8I1M8 whole entry): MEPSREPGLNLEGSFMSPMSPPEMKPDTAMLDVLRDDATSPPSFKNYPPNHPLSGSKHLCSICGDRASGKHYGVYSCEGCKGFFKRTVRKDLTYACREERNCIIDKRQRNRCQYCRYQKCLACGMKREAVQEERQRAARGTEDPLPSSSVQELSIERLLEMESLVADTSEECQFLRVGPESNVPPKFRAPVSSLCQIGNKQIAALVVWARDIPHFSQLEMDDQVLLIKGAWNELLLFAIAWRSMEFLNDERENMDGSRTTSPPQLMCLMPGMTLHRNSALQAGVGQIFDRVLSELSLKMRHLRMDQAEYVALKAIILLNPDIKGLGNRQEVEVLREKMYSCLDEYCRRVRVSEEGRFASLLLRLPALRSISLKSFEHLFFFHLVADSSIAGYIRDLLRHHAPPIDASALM
Briefly: Binding affinity to Chilo suppressalis (rice stem borer) EcR.

The target of test [3] is T3, Ecdysone receptor (Nezara viridula, UniProt E5L6Y0+E5L6Y1).
T3 sequence (E5L6Y1 whole entry): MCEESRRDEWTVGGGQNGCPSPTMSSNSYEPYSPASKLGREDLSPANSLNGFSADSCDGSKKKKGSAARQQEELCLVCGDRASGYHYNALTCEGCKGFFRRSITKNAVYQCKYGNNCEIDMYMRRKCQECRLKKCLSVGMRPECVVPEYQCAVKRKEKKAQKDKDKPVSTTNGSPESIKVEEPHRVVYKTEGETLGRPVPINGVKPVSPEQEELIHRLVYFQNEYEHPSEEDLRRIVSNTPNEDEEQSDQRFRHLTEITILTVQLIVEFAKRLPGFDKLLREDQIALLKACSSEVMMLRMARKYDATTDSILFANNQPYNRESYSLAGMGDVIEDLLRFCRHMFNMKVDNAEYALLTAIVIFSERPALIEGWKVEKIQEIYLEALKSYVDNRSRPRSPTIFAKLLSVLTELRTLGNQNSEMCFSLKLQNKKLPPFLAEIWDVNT
T3 sequence (E5L6Y0 whole entry): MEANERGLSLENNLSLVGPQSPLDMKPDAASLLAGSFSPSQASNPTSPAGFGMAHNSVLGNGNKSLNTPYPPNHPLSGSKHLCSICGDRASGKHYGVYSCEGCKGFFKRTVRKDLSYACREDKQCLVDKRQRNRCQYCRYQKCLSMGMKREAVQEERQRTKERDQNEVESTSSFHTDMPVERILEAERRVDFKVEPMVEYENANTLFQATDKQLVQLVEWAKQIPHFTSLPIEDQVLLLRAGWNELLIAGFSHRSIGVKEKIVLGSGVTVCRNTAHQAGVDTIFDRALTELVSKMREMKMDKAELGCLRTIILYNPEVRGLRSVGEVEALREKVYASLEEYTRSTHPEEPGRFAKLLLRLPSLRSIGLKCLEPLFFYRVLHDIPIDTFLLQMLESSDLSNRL
As to the kind of experiment: Binding affinity to Nezara viridula EcR10.

Usually Ki stands for a dissociation constant, usually derived from enzyme kinetics or from competition with a known ligand. As to `CCc1ccc(C(=O)NN(C(=O)c2cc(C)cc(C)c2)C(C)(C)C)cc1` [TEBUFENOZIDE], the Ki is 25.1 nM at Ecdysone receptor [1], 1.26 nM at Ecdysone receptor [2] and 20000 nM on Ecdysone receptor [3].
